In one experiment the target is T1, SHP2 (Homo sapiens, UniProt Q06124).
T1 sequence (Q06124 1-593): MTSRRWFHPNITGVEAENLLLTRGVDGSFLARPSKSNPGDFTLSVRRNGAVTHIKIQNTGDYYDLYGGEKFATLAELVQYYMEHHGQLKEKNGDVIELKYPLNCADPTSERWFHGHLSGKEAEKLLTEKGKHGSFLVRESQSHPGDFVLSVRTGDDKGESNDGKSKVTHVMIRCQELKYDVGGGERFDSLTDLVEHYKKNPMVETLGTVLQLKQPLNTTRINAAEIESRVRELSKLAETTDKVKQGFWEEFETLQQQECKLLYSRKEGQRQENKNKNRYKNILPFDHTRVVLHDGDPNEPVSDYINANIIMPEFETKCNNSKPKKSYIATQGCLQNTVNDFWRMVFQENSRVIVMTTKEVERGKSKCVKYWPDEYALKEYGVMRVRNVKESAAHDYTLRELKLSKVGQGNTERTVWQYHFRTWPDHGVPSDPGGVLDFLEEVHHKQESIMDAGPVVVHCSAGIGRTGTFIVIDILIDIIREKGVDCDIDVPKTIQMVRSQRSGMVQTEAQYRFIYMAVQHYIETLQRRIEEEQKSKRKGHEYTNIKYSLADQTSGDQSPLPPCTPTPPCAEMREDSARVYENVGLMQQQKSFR
The experiment can be described thus: SHP2 biochemical assay (DiFMUP conversion). The following applies: 10 pM SHP2, 0.25 μM pIRS1 peptide, 50 μM DiFMUP. On the procedure:
(1) SHP2 Biochemical Assay SHP2 Activity was Monitored by Measuring the Conversion of the Surrogate Substrate 6,8-Difluoromethylumbelliferyl Phosphate (DiEMUP) to the Fluorescent Product, 6,8-Difluoromethylumbelliferone (DiFMU).
SHP2 was pre-incubated with test compounds and the activating peptide pIRS1 (H2N-LN(pY) IDLDLV-(PEG) 8-LST(pY)ASINFQK-amide) for 30 min, prior to addition of the 6,8-difluoromethylumbelliferyl phosphate (DiEMUP), (Thermo Fisher D6567). Final assay concentrations were 10 pM SHP2, 0.25 μM pIRS1 peptide, 50 μM DiFMUP, 25 mM Bis-Tris propane, pH 7.0, 150 mM NaCl, 0.05% (v/v) Tween-20, 0.5 mM TCEP and 5% (v/v) DMSO. Rates of reaction were then measured over 30 min by monitoring fluorescence on a BMG Pherastar reader at excitation 360 nm/emission 450 nm. IC50 values were calculated in singlicate from the normalized dose-response plots using four parameter logistic curve fit. The Experiment for each compound was carried out in one time or multiple times, and the IC50 values were shown as a single value (for a compound measured in a single experiment) or an average value (for a compound measured in multiple experiments).

In experiment [1] the test system is NCI-H358, MKN45, NCI-H23, RT 4, MV-4-11, RMG-I. The experiment can be described thus: Anti-proliferation assay, summary over the cell lines of table 3. The class given is cell-based. On the procedure:
Cell lines were obtained from ATCC or Health Science Research Resources Bank.
384 well culture plate (781086, Greiner Bio-One International) was used for cell survival rate measurement assay. Each cell lines were collected by ordinary method, then suspended in indicated medium containing 10% fetal bovine serum in table 3. The number of cells seeded per well was set to 500 cells/20 μL. After incubation at 37° C. for 24 hours under 5% CO2, Compound 1 and additional compound having an antitumor effect or a vehicle (DMSO) was added to each well by using D300e Digital Dispenser (Tecan). The concentration of Compound 1 was set to 10 concentrations. The concentration of each anti-cancer reagents set to 8 concentrations including 0 nM. After adding the medicine to the cells, the cells were further incubated at 37° C. for 3 days under 5% CO2. Cell survival rates were calculated by adding 20 μL of CellTiter-Glo(registered trademark) 2. 0 (Promega) solution to each well, incubating the cells at room temperature for 10 minutes, and then measuring the chemiluminescence intensity of each well using a plate reader (ARVO).
A combination index (CI) value at each combined concentration of the medicines was determined.

For experiment [2], the system named is human colorectal cancer cell line SW837. Put plainly: Antitumor effect on SW837 tumor subcutaneously implanted to SCID-Beige mouse. The following applies: Compound 1 alone, 25 mg/kg/day orally once a day for 28 days; day of assessment. It is filed as in vivo. The protocol: The day at which the grouping was carried out was defined as Day 0.
For experiment [3], the system named is 394 cell lines that do not depend on KRAS. The experiment can be described thus: In vitro cell line screening, 2D monolayers (CellTiter-Glo), KRAS-independent panel. The class given is cell-based, human. The following applies: Non-KRAS panel, sensitive = maximum inhibition greater than 50% relative to DMSO, max 3 μM Compound 1, 1 μM Compound 9, 120-hour incubation. The protocol:
Cells from human cancer cells lines (from commercial sources such as ATCC or ECCAC) were grown as 2D monolayers by seeding onto flat-bottom 96-well tissue culture plates (Corning). Cells were allowed to recover for 16-24 hours prior to compound treatment. Compounds or dimethyl sulfoxide (DMSO) were added at various combinations of compound concentrations in a final DMSO concentration of up to 0.5% (v/v). Following a total of 120-hour incubation, CellTiter-Glo reagent(registered trademark) (Promega) was added. Plates were incubated for 10 minutes with gentle shaking at room temperature to lyse the cells, then incubated for further 10 minutes at room temperature to stabilize luminescence signal. After mixing, the mixture was transferred to a fresh plate, and luminescence was determined on EnVision plate reader (Perkin Elmer).
For both 3D and 2D assays, the combination was tested as matrix of various concentrations of Compound 1 and Compound 9. The maximum concentrations of Compound 1 and Compound 9 used were 3 μM and 1 μM, respectively. Signals were normalized to that of the average of the DMSO control wells. […] For each cell line, the maximum % inhibition values were obtained for Compound 1 alone, Compound 9 alone and the combination of both compounds. The degree of drug interaction (i.e. synergy, additivity or antagonism) was quantified for each cell line by the Bliss independence model using the Synergyfinder R package (Ref: He L. et al. (2018) Methods for High-throughput Drug Combination Screening and Synergy Scoring. In: von Stechow L. (eds) Cancer Systems Biology. Methods in Molecular Biology, vol 1711. Humana Press, New York, N.Y.). For each cell line, a single score metric, the sum of synergy and antagonism across screened drug concentrations (SUM_SYN_ANT) (Ref: Di Veroli G. Y. et al (2016) Bioinformatics 32(18):2866-2868), was calculated. Synergy was defined as a score of 21 or above.
(In general: In ATP-based viability assays light output follows the ATP content of the culture.)

By IC50 is commonly meant the concentration needed to halve the response being measured. A higher IC50 goes with weaker potency. Compound `Cn1nc2ccc(-c3c[nH]c4nc(N5[C@H]6CC[C@@H]5[C@H](N)C6)n(C)c(=O)c34)c(Cl)c2c1Cl` [Compound 1, 2-((1R,2R,4S)-2-amino-7-azabicyclo[2.2.1]heptan-7-yl)-5-(3,4-dichloro-2-methyl-2H-indazol-5-yl)-3-methyl-3,7-dihydro-4H-pyrrolo[2,3-d]pyrimidin-4-one] yielded an IC50 against SHP2 of 2 nM. Moreover, the “anti-proliferation activity in combination” value in experiment [1] (with ALK, Her family (EGFR and HER2), BCR-ABL, FLT3, multi-kinase (PDGFR and VEGFR), c-kit inhibitor) was “synergistically enhanced”; in experiment [1] (with BCL2 inhibitor) it was “synergistically enhanced”; in experiment [1] (with CDK4/6 inhibitor), “synergistically enhanced”; in experiment [1] (with HDAC inhibitor) it was “synergistically enhanced”; in experiment [1] (with PI3K inhibitor or AKT inhibitor), “synergistically enhanced”; in experiment [1] (with RAF inhibitor, MEK inhibitor or ERK inhibitor), “synergistically enhanced”. Also, the “anti-proliferation activity in combination” value in experiment [1] (with anthracycline antibiotics), in experiment [1] (with anti-metabolite), in experiment [1] (with microtubule inhibitor), in experiment [1] (with platinum antitumor agent) and in experiment [1] (with topoisomerase inhibitor) was “synergistically enhanced” each time. Also, in experiment [2], the “T/C (%)” value was determined as 65.0%. The “Number of cell lines sensitive” value in experiment [3] worked out at 137. In addition, the “Number of cell lines sensitive (% of total)” value in experiment [3] was “(34.8) %”.

These data come from patent US20230146795A1, “ENHANCEMENT OF ANTI-TUMOR ACTIVITY OF SHP2 INHIBITOR PYRIMIDINONE IN COMBINATION WITH NOVEL CANCER MEDICINES IN CANCERS” (TAIHO PHARMACEUTICAL CO., LTD., priority 2020, published 2023).
